Results taken from patent US10766882B2, “1,2-naphthoquinone based derivative and method of preparing the same” (YUNGJIN PHARM. CO., LTD., priority 2013, dated 2020).

Tests used:
[1] = tested on: C57BLKS/J db/db mice; assay: Weight loss effects and blood sugar in diabetic mice (db/db); assay type: in vivo; conditions: four weeks, vs 0.1% SLS controls
Experimental: 7 week-old C57BLKS/J db/db mice (chales river laboratories Japan, Inc) having genetic diabetic characteristics available from ORIENTBIO were prepared. Two mice were raised in each polycarbonate breeding cage (200 W×260 L×130H (mm), Three-shine) in which temperature was 22 to 24° C., relative humidity was 30 to 50%, illuminance was 150 to 300 lux, night and day were 12 hours, and exhaust was performed at 10 to 15 air changes per hour. As a feed, low fat diet (11.9 kcal % fat, 5053, Labdiet) manufactured by ORIENTBIO was used. The feed was contained in a feeder and free intake was allowed. As drinking water, water, which was contained in a 250 mL polycarbonate based bottle, purified through a filter and a sterilizer was used and free intake was allowed.
The compound according to Example 1 synthesized in the present invention was orally administered to three C57BLKS/J db/db mice in amounts of 40 mg/kg, 80 mg/kg, and 120 mg/kg, respectively, once every day for four weeks. For administration, a disposable syringe fitted with a sonde for oral administration was used and 10 ml/kg of the compound was orally administered into the stomach. As controls, three C57BLKS/J db/db mice were administered 0.1% SLS in an amount of 120 mg/kg in the same manner as described above. After administration, a time-dependent weight increase ratio, weight change, and intake amount were measured and results are illustrated in FIG. 7 below. In addition, blood sugar was measured and results are illustrated in FIG. 8 below.
Weights of the experimental animals were measured immediately before administration of a test material and six times a week from an administration initiation day to a test termination day. Increased total weights were calculated by subtracting weights measured on an experiment initiation day from weights measured one day before an experiment termination day. Food intake amounts were calculated by measuring feed supply amounts and remaining amounts twice a week from an initiation day of test material administration to a test termination day for each individual. Blood sugar was measured before an administration initiation day of the test material and once a week between an administration initiation day and a test termination day.

[2] = target: NQO1 protein (Homo sapiens, UniProt P15559); assay: NQO1 activity measurement (cytochrome C reduction); assay type: biochemical; conditions: 5 ng NQO1 protein, 200 μM NADH, 77 μM cytochrome C, 37° C., absorbance 550 nm for 10 minutes
[3] = Exp. Ex. 4, FIG. 7: 7 week-old db/db mice, 40, 80, 120 mg/kg oral once every day

Chain of NQO1 protein (P15559 whole entry, species assumed): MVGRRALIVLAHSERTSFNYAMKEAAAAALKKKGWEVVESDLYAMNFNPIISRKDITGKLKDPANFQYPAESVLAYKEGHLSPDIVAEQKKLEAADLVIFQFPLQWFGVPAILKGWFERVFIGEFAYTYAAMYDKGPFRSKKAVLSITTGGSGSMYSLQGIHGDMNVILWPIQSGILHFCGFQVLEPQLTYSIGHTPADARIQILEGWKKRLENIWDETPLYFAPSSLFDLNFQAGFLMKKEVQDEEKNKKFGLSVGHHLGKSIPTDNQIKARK

CC(C)c1nc2c([nH]1)C(=O)C(=O)c1ccccc1-2 [Example 1, 2-isopropyl-1H-naphtho[2,1-d]imidazole-4,5-dione]
intake amount [1, 3]: significantly decreased
weight change [1, 3]: significantly decreased
weight increase ratio [1, 3]: significantly decreased
blood sugar amount ([1]; Exp. Ex. 4, FIG. 8: 7 week-old db/db mice, 40, 80, 120 mg/kg oral once every day, measured once a week): significantly decreased
NQO1 activity (5 μM, [nmol cytochrome C reduced/min/μg protein]) [2]: 177 nmol cytochrome C reduced/min/μg protein
